Patent US4973578A, “Synthetic peptides derived from the alpha-subunit of human lycoprotein hormones” (Mayo Foundation for Medical Education and Research, priority 1988, dated 1990)
Values joined by “and” are separate entries in the source; they are usually repeats but may differ in a detail not shown here. Equal values may be shown once. Residues, ends and D or L forms follow the SMILES beside them.

How the values were obtained:
[1] = tested on: thyroid stimulating immunoglobulin (TSI) stimulated cAMP in FRTL-5 cells; assay: TSI bioassay: inhibition of thyroid stimulating immunoglobulin activity (PEG-precipitated patient immunoglobulin) in FRTL-5 cells; assay type: cell-based, rat; conditions: for Percent inhibition of TSI activity, mean: mean of patient samples tested
Description: Ten patients (8 women and 2 men) with Graves' disease and high levels of TSI were identified after evaluation by FRTL-5 cell bioassay in the clinical chemistry laboratory. (FRTL-5 bioassay described below employing known TSH receptor recognition of various species hormones) Consecutive samples that had indices greater than 15 and sufficient serum remaining for further evaluation were chosen. Seven of the 10 had serum thyroxine values above the normal range and 9 of 10 had TSH levels below the euthyroid range by sensitive immunoradiometric assay [Boots-Celltech Sucrosep, Berkshire, UK, conducted as described in Klee and Hay, J. Clin. Endocrinol. Metab., 64:461 (1987)]. (FIG. 5). For comparison serum from 13 normal subjects was examined for TSI at the same serum dilution as the patient sera. (FIG. 5).
FRTL-5 cells were maintained in Ham's F-12 medium supplemented with 5% calf serum and a 6-hormone preparation (6H) as described by Ambesi-Impiombato, supra. The cells were removed from flasks enzymatically, plated at 150,000 cells per well in 24 well plates, and grown in 6H medium for 4 days. The medium was then replaced with fresh medium supplemented with insulin only (1H) for 7 days prior to assay. The bioassay was a modification of that described by Kasagi et al., supra. Briefly, immunoglobulins were precipitated from 2 ml of serum with 6 ml 20% polyethylene glycol 6000 (Baker, Phillipsburg, N.J.), centrifuged at 2800×g for 20 minutes, and then reconstituted in 2.4 ml buffer (NaCl-free Hanks balanced salt solution, NaCl-free HBSS), containing 1 mM iso-butyl-methyl-xanthine (IBMX, Sigma, St. Louis) and 1.5% BSA. After washing the cells with HBSS, 150 ul of buffer was added to the wells plus varying concentrations of synthetic α-subunit peptides followed immediately by 150 ul of the crude immunoglobulin extract. The plates were incubated for 2 hours at 37° C., 5% CO2 after which 100 ul of medium was removed and diluted in 900 ul 50 mM sodium acetate buffer, pH 6.2. cAMP content was determined by radioimmunoassay using the procedures described in Wray and Glinos, supra and Steiner et al., supra. Basal cAMP levels were determined in the absence of immunoglobulin extract and synthetic peptides for each plate. Basal and maximum levels were determined in quadruplicate; peptide effects were measured in duplicate at each concentration.
Percent increase in cAMP levels over basal was calculated as below: [formula]
Percent inhibition of TSI activity by the synthetic α-subunit peptides was calculated as follows: [formula]
cAMP levels in the presence of synthetic peptides were compared to maximum levels using student's T test for paired samples. Mean percent inhibition between different peptides were compared with student's T test for independent samples. Correlations were determined by Pearson's R.

[2] = tested on: TSH mediated cAMP generation in FRTL-5 cells; assay: Inhibition of TSH mediated cAMP generation in FRTL-5 cells; assay type: cell-based, rat; conditions: 200 mU/L bTSH, 2 hrs 37° C.
Experimental: FRTL-5 cells were maintained in Ham's F-12 medium supplemented with 5% calf serum and a 6 hormone preparation including 10 mU/ml bTSH as described by Ambesi-Impiombato et al., Proc. Natl. Acad. Sci. U.S.A., 77:3455 (1980), the disclosure of which is incorporated herein. For all assays herein described, the cells were plated in 24 well plates and grown for 3 days at 37° C. then maintained for 5-7 days in medium supplemented with 10 ug insulin alone prior to assay.
The bioassay was a modification of those previously described by Bidey et al, J. Endocrinol., 101:269 (1984); and Kasagi et al., ACTA Endocrinol., 115:30 (1987). To duplicate culture wells were added varying concentrations of test materials (see below) in a final volume of 300 ul of NaCl free HBSS with 0.5 mM iso-butyl-methyl-xanthine (IBMX, Sigma, St. Louis). In stimulation assays, only synthetic α-subunit peptides were added to the incubation medium. For inhibition assays, the noted concentrations of synthetic α-subunit peptides were added immediately prior to the addition of 200 mU/L bTSH. The plates were incubated at 37° C. in 5% CO2 for 2 hrs then 100 ul of incubation medium was removed and diluted in 900 ul of 0.05M sodium acetate pH 6.2 and assayed for cAMP content by RIA in accordance with procedures described by Wray and Glinos, Am. J. Physiol., 234 (Cell Phisol. 3):C131(1978)); and Steiner et al., J. Biol. Chem., 247:1106 (1972). […] Basal cAMP levels were determined in the presence of HBSS and IBMX alone. In inhibition assays percent inhibition was calculated as follows: [formula]
FIG. 4 reports data obtained for TSH deprived FRTL-5 cells incubated with a fixed amount of bTSH (200 mU/l) by itself or with various concentrations of synthetic peptides. cAMP content of medium was measured after 2 hrs. incubation at 37° C. Percent inhibition of cAMP generation was calculated as noted above.

## CSCC[C@H](NC(=O)[C@H](CS)NC(=O)[C@H](CCC(N)=O)NC(=O)[C@@H](N)CC(C)C)C(=O)NCC(=O)N[C@@H](CS)C(=O)N[C@@H](CS)C(=O)N[C@@H](Cc1ccccc1)C(=O)N[C@@H](CO)C(=O)N[C@@H](CCCNC(=N)N)C(=O)N[C@@H](C)C(=O)N[C@@H](Cc1ccc(O)cc1)C(=O)N1CCC[C@H]1C(=O)N[C@H](C(=O)N1CCC[C@H]1C(=O)N[C@@H](CC(C)C)C(=O)N[C@@H](CCCNC(=N)N)C(=O)N[C@@H](CO)C(=O)N[C@@H](CCCCN)C(=O)N[C@@H](CCCCN)C(=O)N[C@H](C(N)=O)[C@@H](C)O)[C@@H](C)O [α26-46, Leu--Gln--Cys--Met--Gly--Cys--Cys--Phe--Ser--Arg--Ala--Tyr--Pro--Thr--Pro--Leu--Arg--Ser--Lys--Lys--Thr--(NH2)] (H-LQCMGCCFSRAYPTPLRSKKT-NH2)
[1]; Graves' disease patient samples
  patient samples in which peptide showed an inhibitory effect / lowered cAMP levels: 10 of 10
[1]; Pt. sample A, peptide 66.7 ug/ml
  Percent inhibition of TSI activity: 62.1%
[1]; Pt. sample A, peptide 133 ug/ml
  Percent inhibition of TSI activity: 125.3±3% and 125.3%
[1]; Pt. sample B, peptide 66.7 ug/ml
  Percent inhibition of TSI activity: 14.3%
[1]; Pt. sample B, peptide 133 ug/ml
  Percent inhibition of TSI activity: 125.0%
[1]; Pt. sample C, peptide 66.7 ug/ml
  Percent inhibition of TSI activity: 29.1%
[1]; Pt. sample C, peptide 133 ug/ml
  Percent inhibition of TSI activity: 86.4%
[1]; Pt. sample D, peptide 66.7 ug/ml
  Percent inhibition of TSI activity: 9.1%
[1]; Pt. sample D, peptide 133 ug/ml
  Percent inhibition of TSI activity: 85.7%
[1]; Pt. sample E, peptide 66.7 ug/ml
  Percent inhibition of TSI activity: 42.0%
[1]; Pt. sample E, peptide 133 ug/ml
  Percent inhibition of TSI activity: 85.9%
[1]; Pt. sample F, peptide 66.7 ug/ml
  Percent inhibition of TSI activity: 19.8%
[1]; Pt. sample F, peptide 133 ug/ml
  Percent inhibition of TSI activity: 57.8%
[1]; Pt. sample G, peptide 66.7 ug/ml
  Percent inhibition of TSI activity: 43.1%
[1]; Pt. sample G, peptide 133 ug/ml
  Percent inhibition of TSI activity: 77.2%
[1]; Pt. sample H, peptide 66.7 ug/ml
  Percent inhibition of TSI activity: 14.7%
[1]; Pt. sample H, peptide 133 ug/ml
  Percent inhibition of TSI activity: 52.5%
[1]; Pt. sample I, peptide 66.7 ug/ml
  Percent inhibition of TSI activity: 4.2%
[1]; Pt. sample I, peptide 133 ug/ml
  Percent inhibition of TSI activity: 38±9.7% and 38.0%
[1]; Pt. sample J, peptide 66.7 ug/ml
  Percent inhibition of TSI activity: 36.0%
[1]; Pt. sample J, peptide 133 ug/ml
  Percent inhibition of TSI activity: 57.7%
[1]; peptide 66.7 ug/ml
  Percent inhibition of TSI activity, mean: 27.5%
[1]; peptide 133 ug/ml
  Percent inhibition of TSI activity, mean: 79.1±8.8% and 79.1%
  patient Ig samples with statistically significant inhibition of cAMP: 10
[2]; peptide 33.3 ug/ml
  percent inhibition of TSH mediated cAMP generation: 65.0±2.6% and 64.97%
[2]; peptide 66.7 ug/ml
  percent inhibition of TSH mediated cAMP generation: 95.6±3.1% and 95.62%
[2]; peptide 133.3 ug/ml
  percent inhibition of TSH mediated cAMP generation: 106±0.8% and 106.70%
